# Measurements taken from patent publication US11020451B2, “Methods for treating fibrotic cancers” (Promedior, Inc., priority 2013, dated 2021).
# What was measured:
# Type in all cases: in vivo, human
# [1] = tested on: myelofibrosis (MF) patients; assay: Hemoglobin, platelets (CBC) and red blood cell transfusions, same study; conditions: for hemoglobin response / platelet response: patient 101-005 (Cohort 1), 24-30 weeks of monotherapy
# Experimental: (§1) Recombinant human SAP, in this case the recombinant human SAP known as PRM-151, was administered to myelofibrosis (MF) patients, alone and in combination with ruxolitinib (RUX), to evaluate safety and efficacy in treating bone marrow fibrosis (BMF). Patients with Intermediate-1, Intermediate-2, or high risk MF with grade ≥2 BMF, either not receiving therapy or on a stable dose of RUX, were eligible for this study.
# (§2) Twenty-seven patients were assigned to one of four cohorts based on administration of PRM-151 as a monotherapy or as part of a combination therapy. Cohort 1: i) patients who received no treatment for MF in at least two weeks, ii) were administered an initial loading dose of SAP at 10 mg/kg by intravenous infusion (˜1 hour infusion) on days 1, 3, and 5, and iii) thereafter were administered a dose of SAP every four weeks at 10 mg/kg by intravenous infusion (˜1 hour infusion). Cohort 2: i) patients who received no treatment for MF in at least two weeks, ii) were administered an initial loading dose of SAP at 10 mg/kg by intravenous infusion (˜1 hour infusion) on days 1, 3, and 5, and iii) thereafter were administered a dose of SAP every week at 10 mg/kg by intravenous infusion (˜1 hour infusion). Cohort 3: i) patients on a stable dose (e.g., on ruxolitinib for at least 3 months without any dose modifications) of ruxolitinib for at least 12 weeks with no improvement in spleen during the last four weeks, ii) were administered an initial loading dose of SAP at 10 mg/kg by intravenous infusion (˜1 hour infusion) on days 1, 3, and 5 iii) thereafter were administered a dose of SAP every week at 10 mg/kg by intravenous infusion (˜1 hour infusion), and iv) were administered RUX orally at the dose at which they entered the study. Cohort 4: i) patients on a stable dose (e.g., on ruxolitinib for at least 3 months without any dose modifications) of ruxolitinib for at least 12 weeks with no improvement in spleen during the last four weeks, ii) were administered an initial loading dose of SAP at 10 mg/kg by intravenous infusion (˜1 hour infusion) on days 1, 3, and 5 iii) thereafter were administered a dose of SAP every four weeks at 10 mg/kg by intravenous infusion (˜1 hour infusion), and iv) were administered RUX orally at the dose at which they entered the study.
# (§3) Patients in each cohort were monitored for improvements in BMF and other MF-related complications including, for example, abnormal blood cell parameters, splenomegaly, and symptoms as assessed by the MPN-SAF. In particular, patients were monitored for overall response rate according to the International Working Group consensus criteria for treatment response in myelofibrosis with myeloid metaplasia (Tefferi A, Cervantes F, Mesa R, et al. Revised response criteria for myelofibrosis: International Working Group-Myeloproliferative Neoplasms Research and Treatment (IWG-MRT) and European LeukemiaNet (ELN) consensus report. Blood. 2013; 122:1395-1398). Patients were also monitored for incidence of adverse events, changes in bone marrow fibrosis according to the European Consensus of Grading Bone Marrow Fibrosis (Thiele J, Kvasnicka H M, Facchetti F, et al. European consensus on grading bone marrow fibrosis and assessment of cellularity. Haematologica 2005; 90:1128-1132.), changes in the modified Myeloproliferative Neoplasma Symptom Assessment Form (MPN-SAF) Score (Emanuel et al. 2012, Journal of Clinical Oncology 30(33): 4098-4103), as well as pharmacokinetic parameters including, for example, maximum drug concentration (Cmax), time to maximum concentration (Tmax), area under the curve (AUC), clearance, and volume of distribution.
# (§4) Clinical response assessment, including assessment of spleen size, MPN-SAF, and CBC, was carried out every 4 weeks. BM biopsies were carried out at baseline, 12 weeks, and 24 weeks. The IWG-MRT symptom and bone marrow responses observed at 24 weeks of this study are summarized below in Table 3. […]
# [2] = tested on: myelofibrosis (MF) patients; assay: Adverse events, tolerability and myelosuppression, Stage 1 study of PRM-151 alone and with ruxolitinib; conditions: for safety and tolerability: MF patients, alone and in combination with RUX; for treatment-related myelosuppression: after 24 weeks of therapy, all four cohorts
# Experimental: as §1, §2, §3
# The numbers indicated in each column below the grade indicate the number of patients in which the adverse event was reported.
# [3] = tested on: myelofibrosis (MF) patients; assay: Spleen size / spleen response, same study; conditions: for number of patients with measurable decrease in spleen size: alone; for spleen size response: patient 101-005 (Cohort 1), 24-30 weeks of monotherapy
# Experimental: as §1, §2, §3, §4
# [4] = tested on: myelofibrosis (MF) patients; assay: MPN-SAF Total Symptom Score and IWG-MRT symptom response, same study; conditions: for number of patients with measurable symptom response (TSS reduction): alone; for MPN-SAF TSS response: patient 101-005 (Cohort 1), 24-30 weeks of monotherapy
# Experimental: as §1, §2, §3, §4
# [5] = tested on: myelofibrosis (MF) patients; assay: Bone marrow fibrosis grade (European Consensus) and bone marrow response, same study; conditions: for number of patients with decrease in bone marrow fibrosis by ≥1 grade: all treatment arms, at 12 or 24 weeks or both; for bone marrow fibrosis grade change: after 12 weeks
# Experimental: as §1, §2, §3
# Bone marrow biopsies were obtained at baseline and after three months of therapy and were reviewed. […] As detailed below, these improvements in BMF have borne out upon further analysis of the data across further treatment periods.
# Clinical response assessment, including assessment of spleen size, MPN-SAF, and CBC, was carried out every 4 weeks. […]
# [6] = a number of patients in all 4 treatment arms
# [7] = Cohort 1: 10 mg/kg IV Q4W alone, 24 weeks
# [8] = Cohort 2: 10 mg/kg IV QW alone, 24 weeks
substance,measurement,setting,value
"PRM-151: recombinant human SAP (serum amyloid P, pentraxin-2), α2,3-sialic acid-containing, expressed in CHO cells",hemoglobin levels,[1]; [6],Improvement
same,platelet levels,[1]; [6],Improvement
same,red blood cell transfusions,[1]; [6],decrease
same,hemoglobin response,[1],increase
same,platelet response,[1],increase
same,hemoglobin response,[1]; listed as rhSAP,improvement
same,platelet response,[1]; listed as rhSAP,improvement
same,"Abdominal pain Gr 3, number of patients",[2]; [7],1
same,"Fatigue Gr 2, number of patients",[2]; [7],2
same,"Neuropathy Peripheral Gr 2, number of patients",[2]; [7],1
same,"Abdominal pain Gr 3, number of patients",[2]; [8],1
same,"Alanine aminotransferase increased Gr 2, number of patients",[2]; [8],1
same,safety and tolerability,[2]; listed as SAP,good tolerability
same,safety and tolerability,[2]; listed as rhSAP,safe and well tolerated
same,treatment-related myelosuppression,[2],no apparent treatment-related myelosuppression
same,treatment-related myelosuppression,[2]; listed as rhSAP,no evidence of clinically significant myelosuppression
same,number of patients with measurable decrease in spleen size,[3]; Cohort 1: every 4 weeks,3
same,"spleen response ≥8 weeks, number","[3]; Cohort 2: QW alone, 24 weeks",1 spleen response ≥8 weeks
same,number of patients with measurable decrease in spleen size,[3]; Cohort 2: weekly,2
same,number of patients with ≥20% reduction in spleen volume,"[3]; all treatment arms, 24 weeks",five
same,number of patients with reduction in spleen size compared to baseline,"[3]; of 13 evaluated patients with palpable spleen followed to C6D29 or beyond, all four arms",10
same,reduction in spleen volume,"[3]; one patient, Cohort 2 (weekly, alone), lasting 8 weeks",50%
same,spleen size response,[3],decrease
same,spleen size response,[3]; listed as rhSAP,reduction
same,"symptom response ≥8 weeks, number","[4]; Cohort 1: Q4W alone, 24 weeks",1 symptom response ≥8 weeks
same,number of patients with measurable symptom response (TSS reduction),[4]; Cohort 1: every 4 weeks,4
same,"confirmed symptom responses (≥12 weeks), number","[4]; Cohort 2: QW alone, 24 weeks",2 confirmed symptom responses (≥12 weeks)
same,"symptom response ≥8 weeks, number","[4]; Cohort 2: QW alone, 24 weeks",1 symptom response ≥8 weeks
same,number of patients with measurable symptom response (TSS reduction),[4]; Cohort 2: weekly,1
same,additional subjects with 50% decrease in symptom score lasting ≥8 weeks,[4]; less than 50% on Cycle 6 Day 29,Two
same,number of patients with reduction in MPN-SAF TSS compared to baseline,"[4]; of 18 evaluated patients followed to C6D29 or beyond, all four arms",10
same,number of patients with ≥50% reduction in Total Symptom Score,"[4]; on Cycle 6 Day 29, all arms",5
same,MPN-SAF TSS response,[4],decrease
same,MPN-SAF TSS response,[4]; listed as rhSAP,reduction
same,"bone marrow responses, number","[5]; Cohort 1: Q4W alone, 24 weeks",2 bone marrow responses
same,"bone marrow responses, number","[5]; Cohort 1: Q4W alone, 24 weeks, listed as recombinant human SAP",2
same,"bone marrow responses, number","[5]; Cohort 2: QW alone, 24 weeks",1 bone marrow response
same,number of patients with decrease in bone marrow fibrosis by ≥1 grade,[5],5
same,number of patients with decrease in bone marrow fibrosis by ≥1 grade,[5]; listed as recombinant human SAP,five
same,"bone marrow responses, number","[5]; in 10 additional patients evaluated at 36 weeks, alone or in combination",3
same,number of subjects with improvement in BMF,"[5]; of 27 subjects examined, biopsies at baseline and after three months, all cohorts",5
same,bone marrow fibrosis grade change,"[5]; one Cohort 1 patient (every four weeks, alone)",Grade 2 to Grade 0
same,bone marrow fibrosis grade change,"[5]; one Cohort 2 patient (weekly, alone)",Grade 3 to Grade 2
same,bone marrow fibrosis grade change (reticulin staining),"[5]; patient 101-005 (Cohort 1), 12 weeks / three months",Grade 2 to Grade 0
same,bone marrow fibrosis grade change (reticulin staining),"[5]; patient 108-003 (Cohort 4), six months",Grade 2 to Grade 1
same,bone marrow fibrosis grade change (reticulin staining),"[5]; patient 108-003 (Cohort 4), three months",Grade 3 to Grade 2
same,durability of response,"[5]; patients responsive at the 12- or 24-week mark, following 36 weeks of treatment",continued to respond
